Test results published in PubChem BioAssay AID328 (DTP/NCI, 2004).
Values joined by “and” are separate entries in the source; they are usually repeats but may differ in a detail not shown here. Equal entries are not always repeated. Toxic doses and inconclusive results are not listed. The calls were made as follows: active = survival T/C of 150% or more; inactive = T/C below 125% in these data.

System: BDF1 mice, P388 leukemia ip, median survival T/C
Experiment: NCI In Vivo Anticancer Drug Screen. Data for tumor model P388 Leukemia (intraperitoneal) in B6D2F1 (BDF1) mice
Settings: endpoint: median survival time, higher = longer survival
Summary of the method: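 Transplantable tumour in mice; compound vs vehicle dosing; survival scored; ratio of treated to control reported.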

[1] = dose: 25.0 mg/kg/injection, schedule: Q01DX009 (ip), vehicle: water
[2] = dose: 50.0 mg/kg/injection, schedule: Q01DX009 (ip), vehicle: water
[3] = dose: 50.0 mg/kg/injection, schedule: Q04DX003 (ip), vehicle: water
[4] = dose: 100.0 mg/kg/injection, schedule: Q04DX003 (ip), vehicle: water
[5] = dose: 200.0 mg/kg/injection, schedule: Q04DX003 (ip), vehicle: water
[6] = dose: 400.0 mg/kg/injection, schedule: Q04DX003 (ip), vehicle: water
[7] = dose: 25.0 mg/kg/injection, schedule: Q04DX003 (ip), vehicle: saline with Tween-80
[8] = dose: 50.0 mg/kg/injection, schedule: Q01DX009 (ip), vehicle: saline with Tween-80
[9] = dose: 100.0 mg/kg/injection, schedule: Q01DX009 (ip), vehicle: saline with Tween-80
[10] = dose: 200.0 mg/kg/injection, schedule: Q01DX009 (ip), vehicle: saline with Tween-80
[11] = dose: 100.0 mg/kg/injection, schedule: Q01DX009 (ip), vehicle: Klucel (hydroxypropylcellulose) (HPC)
[12] = dose: 200.0 mg/kg/injection, schedule: Q01DX009 (ip), vehicle: Klucel (hydroxypropylcellulose) (HPC)
[13] = dose: 400.0 mg/kg/injection, schedule: Q01DX009 (ip), vehicle: Klucel (hydroxypropylcellulose) (HPC)
[14] = dose: 50.0 mg/kg/injection, schedule: Q04DX003 (ip), vehicle: saline with Tween-80
[15] = dose: 100.0 mg/kg/injection, schedule: Q04DX003 (ip), vehicle: saline with Tween-80
[16] = dose: 200.0 mg/kg/injection, schedule: Q04DX003 (ip), vehicle: saline with Tween-80
[17] = dose: 400.0 mg/kg/injection, schedule: Q04DX003 (ip), vehicle: saline with Tween-80
[18] = dose: 25.0 mg/kg/injection, schedule: Q01DX009 (ip), vehicle: saline with Tween-80
[19] = dose: 100.0 mg/kg/injection, schedule: Q04DX003 (ip), vehicle: Klucel (hydroxypropylcellulose) (HPC)
[20] = dose: 200.0 mg/kg/injection, schedule: Q04DX003 (ip), vehicle: Klucel (hydroxypropylcellulose) (HPC)
[21] = dose: 400.0 mg/kg/injection, schedule: Q04DX003 (ip), vehicle: Klucel (hydroxypropylcellulose) (HPC)
[22] = dose: 50.0 mg/kg/injection, schedule: Q01DX009 (ip), vehicle: saline
[23] = dose: 100.0 mg/kg/injection, schedule: Q01DX009 (ip), vehicle: saline
[24] = dose: 200.0 mg/kg/injection, schedule: Q01DX009 (ip), vehicle: saline

Measured: T/C

COc1cccc2c(=O)cc(C)[nH]c12
inactive: [1] 107 % of control | [2] 92 % of control | [3] 103 % of control | dose: 100.0 mg/kg/injection, schedule: Q01DX009 (ip), vehicle: water 101 % of control | [4] 97 % of control | dose: 200.0 mg/kg/injection, schedule: Q01DX009 (ip), vehicle: water 91 % of control | [5] 106 % of control | dose: 400.0 mg/kg/injection, schedule: Q01DX009 (ip), vehicle: water 90 % of control | [6] 98 % of control

Cc1ccc2c(ccc3c[n+]4ccccc4c(C)c32)c1
inactive: dose: 12.5 mg/kg/injection, schedule: Q04DX003 (ip), vehicle: saline with Tween-80 113 % of control | [7] 118 % of control | dose: 33.0 mg/kg/injection, schedule: Q04DX003 (ip), vehicle: saline with Tween-80 122 % of control

CN(C)CCOCN1COCC1(C)C
inactive: [8] 120 % of control

OCC1=CCCCC1
inactive: [8] 106 % of control | [9] 98 % of control | [10] 104 % of control

CC1B(O)Nc2nc(=S)[nH]c(N)c21 (configuration not stated)
inactive: dose: 50.0 mg/kg/injection, schedule: Q04DX003 (ip), vehicle: saline sonified 100 % of control | dose: 100.0 mg/kg/injection, schedule: Q04DX003 (ip), vehicle: saline sonified 100 % of control | dose: 200.0 mg/kg/injection, schedule: Q04DX003 (ip), vehicle: saline sonified 100 % of control

CCCn1c2ccccc2c2ccccc21
inactive: [11] 120 % of control | [12] 100 % of control | [13] 95 % of control

C[As](C)Sc1ccnc(S[As](C)C)n1
inactive: [14] 100 % of control | [15] 100 % of control | [16] 104 % of control

CC(C(=O)O)N(CC(=O)O)CC(=O)O.[Co+2].[NH-]CC(=O)O (configuration not stated)
inactive: dose: 12.5 mg/kg/injection, schedule: Q01DX009 (ip), vehicle: water 99 % of control | [1] 108 % of control | [2] 105 % of control | [3] 103 % of control | [4] 96 % of control

COc1ccc(N=Cc2cccs2)cc1
inactive: [9] 119 % of control | [10] 96 % of control | dose: 400.0 mg/kg/injection, schedule: Q01DX009 (ip), vehicle: saline with Tween-80 100 % of control

COc1cc(/C=C/c2ccc3ccccc3n2)cc(OC)c1OC
inactive: [15] 100 % of control

CC(=O)OC(c1ccccc1)C(Cl)(Cl)Cl (configuration not stated)
inactive: [15] 100 % of control | [16] 105 % of control | [17] 110 % of control

C(=N/c1ncn[nH]1)/Nc1ncn[nH]1
inactive: dose: 12.5 mg/kg/injection, schedule: Q01DX009 (ip), vehicle: suspension in saline 100 % of control | dose: 25.0 mg/kg/injection, schedule: Q01DX009 (ip), vehicle: suspension in saline 113 % of control | dose: 50.0 mg/kg/injection, schedule: Q01DX009 (ip), vehicle: suspension in saline 118 % of control | dose: 100.0 mg/kg/injection, schedule: Q01DX009 (ip), vehicle: suspension in saline 96 % of control

CCN(CC)c1c(-c2ccccc2)nnc2c3ccccc3nn12
inactive: [18] 100 % of control | [8] 88 % of control | [9] 100 % of control

COC(=O)Nc1nc2ccc(Br)cc2[nH]1
inactive: [11] 104 % of control | [19] 109 % of control | [12] 112 % of control | [20] 109 % of control | [13] 116 % of control | [21] 113 % of control

O=[N+]([O-])c1ccc(SNc2ccc(O)cc2)cc1[N+](=O)[O-]
inactive: [11] 100 % of control | [19] 100 % of control | [12] 90 % of control | [20] 104 % of control | [13] 109 % of control | [21] 104 % of control

CC(C)CC(=O)CC1(C)CCC(c2ccoc2)O1 (configuration not stated)
inactive: [18] 96 % of control and 100 % of control | [8] 97 % of control and 105 % of control | [9] 103 % of control and 110 % of control | [10] 117 % of control

CCOC(=O)C(=O)NCc1cnccn1
inactive: [4] 104 % of control | [5] 104 % of control | [6] 100 % of control

Cc1ccn(-c2ccccc2)n1
inactive: dose: 100.0 mg/kg/injection, schedule: Q04DX003 (ip), vehicle: other 104 % of control | dose: 200.0 mg/kg/injection, schedule: Q04DX003 (ip), vehicle: other 113 % of control | dose: 400.0 mg/kg/injection, schedule: Q04DX003 (ip), vehicle: other 113 % of control

COC(C)C(NC(=O)C1CCCN1C)C1OC(SCCOC(=O)c2ccccc2O)C(O)C(O)C1O (configuration not stated)
inactive: [22] 100 % of control | [23] 100 % of control and 101 % of control (2×) | [24] 104 % of control

O=C1OCc2cc3ccccc3nc21
inactive: [15] 109 % of control | [16] 100 % of control | [17] 104 % of control

CCCCCn1c(Cl)c(/C=N\Nc2ccccc2[N+](=O)[O-])c2ccccc21
inactive: dose: 100.0 mg/kg/injection, schedule: Q01DX001 (ip), vehicle: Klucel (hydroxypropylcellulose) (HPC) 105 % of control | dose: 200.0 mg/kg/injection, schedule: Q01DX001 (ip), vehicle: Klucel (hydroxypropylcellulose) (HPC) 96 % of control | dose: 400.0 mg/kg/injection, schedule: Q01DX001 (ip), vehicle: Klucel (hydroxypropylcellulose) (HPC) 118 % of control

O=C(/C(=C/c1ccccc1)CN1CCOCC1)c1ccccc1
inactive: dose: 25.0 mg/kg/injection, schedule: Q04DX003 (ip), vehicle: Klucel (hydroxypropylcellulose) (HPC) 91 % of control | dose: 50.0 mg/kg/injection, schedule: Q04DX003 (ip), vehicle: Klucel (hydroxypropylcellulose) (HPC) 95 % of control | [19] 91 % of control

[O]=[Sb]([c]1ccccc1)([c]1ccccc1)[c]1ccccc1
inactive: [7] 106 % of control | [14] 101 % of control | [15] 114 % of control

CC=C=C(C)CN
inactive: [22] 96 % of control | [23] 96 % of control | [24] 92 % of control

c1cc[c]([Pb]([c]2ccccc2)[c]2ccccc2)cc1.c1cc[c]([Pb]([c]2ccccc2)[c]2ccccc2)cc1
inactive: dose: 3.13 mg/kg/injection, schedule: Q01DX009 (ip), vehicle: saline with Tween-80 109 % of control | dose: 6.25 mg/kg/injection, schedule: Q01DX009 (ip), vehicle: saline with Tween-80 104 % of control | dose: 12.5 mg/kg/injection, schedule: Q01DX009 (ip), vehicle: saline with Tween-80 101 % of control | [18] 104 % of control

CCN(CC)C(=S)S
inactive: dose: 100.0 mg/kg/injection, schedule: Q01DX009 (ip), vehicle: saline sonified 104 % of control | dose: 200.0 mg/kg/injection, schedule: Q01DX009 (ip), vehicle: saline sonified 100 % of control | dose: 400.0 mg/kg/injection, schedule: Q01DX009 (ip), vehicle: saline sonified 118 % of control | dose: 400.0 mg/kg/injection, schedule: Q01DX010 (ip), vehicle: water 100 % of control
